The values that follow come from PubChem BioAssay AID540274 (Sanford-Burnham Center for Chemical Genomics, 2011).

Activity calls are given as the source filed them.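 The calls were made as follows: active = mean IC50 below 100 µM; inactive = the rest.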 Where only a bound is given, the exact number is not on record here.

The assay has as its target intestinal alkaline phosphatase Alpi (Mus musculus). The assay can be described thus: mouse IAP inhibition by analogs, SAR follow-up, selectivity assay for human IAP inhibitor project, biochemical, ortholog specificity, luminescence, set 2 (AID 540274). The note with it: purified mouse IAP, CDP-Star luminescence, 30 min.
What is called IC50 is the midpoint of a concentration-inhibition curve. Turning to `O=C(CNS(=O)(=O)c1ccc2[nH]c(=O)oc2c1)NCc1ccc2c(c1)OCO2`, the IC50 was 3.31 µM.
Take `COc1ccc(NC(=O)CNS(=O)(=O)c2ccc3[nH]c(=O)oc3c2)cc1OC`: the IC50 is 23 µM.
For `O=C(CNS(=O)(=O)c1ccc2[nH]c(=O)oc2c1)Nc1ccc2c(c1)OCO2`, the IC50 is 5.05 µM.
The same measure for `N#Cc1ccc(CNC(=O)CCNS(=O)(=O)c2ccc3[nH]c(=O)oc3c2)cc1`: > 100 µM (inactive); for `Cc1ccc(C)c(NC(=O)CCNS(=O)(=O)c2ccc3[nH]c(=O)oc3c2)c1`: 0.219 µM.
